Laboratory results as given in ChEMBL document CHEMBL1129394, “Studies on selectin blocker. 3. Investigation of the carbohydrate ligand sialyl Lewis X recognition site of P-selectin” (J Med Chem, 1996).

Target: T1, P-selectin (Homo sapiens, UniProt P16109)
T1 sequence (P16109 whole entry): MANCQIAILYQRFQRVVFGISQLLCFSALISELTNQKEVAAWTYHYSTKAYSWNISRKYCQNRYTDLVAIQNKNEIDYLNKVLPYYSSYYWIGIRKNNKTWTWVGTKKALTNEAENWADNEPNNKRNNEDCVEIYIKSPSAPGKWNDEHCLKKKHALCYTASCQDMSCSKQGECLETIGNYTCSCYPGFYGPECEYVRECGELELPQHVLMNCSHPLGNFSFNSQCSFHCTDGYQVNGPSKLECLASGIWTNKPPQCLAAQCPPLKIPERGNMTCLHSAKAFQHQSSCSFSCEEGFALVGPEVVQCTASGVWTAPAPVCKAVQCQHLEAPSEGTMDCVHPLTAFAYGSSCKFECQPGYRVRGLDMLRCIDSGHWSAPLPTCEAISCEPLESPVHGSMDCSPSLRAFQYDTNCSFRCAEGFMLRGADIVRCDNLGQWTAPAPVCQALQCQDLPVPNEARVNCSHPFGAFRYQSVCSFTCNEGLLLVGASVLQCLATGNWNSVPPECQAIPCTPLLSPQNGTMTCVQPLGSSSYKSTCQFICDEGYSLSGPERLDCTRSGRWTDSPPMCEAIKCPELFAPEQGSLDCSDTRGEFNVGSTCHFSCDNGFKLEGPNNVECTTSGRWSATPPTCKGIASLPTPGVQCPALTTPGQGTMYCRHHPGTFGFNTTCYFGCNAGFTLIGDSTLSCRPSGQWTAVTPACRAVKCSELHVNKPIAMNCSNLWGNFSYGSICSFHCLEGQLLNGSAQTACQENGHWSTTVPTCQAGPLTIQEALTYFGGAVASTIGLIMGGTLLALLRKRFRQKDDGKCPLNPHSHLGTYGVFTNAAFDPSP
Test: Blocking activity on Selectin P ligand binding

## CC(=O)N[C@H]1[C@H]([C@H](O)[C@H](O)CO)O[C@@](O[C@H]2[C@@H](O)[C@@H](CO)O[C@@H](O[C@@H]([C@H](O[C@@H]3O[C@@H](C)[C@@H](O)[C@@H](O)[C@@H]3O)[C@H](C=O)NC(C)=O)[C@H](O)CO)[C@@H]2O)(C(=O)O)C[C@@H]1O [SIALYL LEWIS X]
  IC50: > 1000 µM
